# Experimental data published in US11730731B2 (INVENTAGE LAB INC., priority 2021, dated 2023).
# Key:
# MD2 protein = target: T1, MD2 protein (Homo sapiens, UniProt Q9Y6Y9); assay: Surface plasmon resonance analysis of binding to MD2; conditions: binding gradually increased as the concentration of naltrexone increased
# T1 construct: purchased R&D systems (Minneapolis, Minn., USA)
# T1 sequence (Q9Y6Y9 19-160): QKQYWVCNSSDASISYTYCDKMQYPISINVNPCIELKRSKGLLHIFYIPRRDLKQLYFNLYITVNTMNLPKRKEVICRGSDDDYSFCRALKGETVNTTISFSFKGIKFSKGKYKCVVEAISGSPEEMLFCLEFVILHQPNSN
# p65 NF-κB = assay: Western blotting of NF-κB activity in LPS-treated SW982 cells; format: cell-based, human
# Experimental: (§1) 1× Cell lysis buffer (Cell signaling, CA, USA) was mixed with protease and a phosphatase inhibitor and added to SW982 cells. After extracting the protein from the cells, the concentration was measured, and the same amount of protein was developed on an SDS-polyacrylamide gel, and transferred to an ECL nitrocellulose membrane (Amersham Pharmacia Biotech, Inc., Piscataway, N.J., USA) and blocked with nonfat dried milk for 1 hour. Thereafter, the reaction was performed with the first antibody (p65 NF-κB, phospho p65 NF-κB or calnexin; Cell signaling, CA, USA), while shaking at 4° C. for 24 hours. Then, after shaking and washing 3 times for 10 minutes with PBST buffer, the secondary antibody was incubated with anti-mouse or anti-rabbit HRP-conjugated secondary antibody for 1 hour at room temperature, and reacted with the protein band on the membrane using Supersignal west pico ECL solution (Thermo Fisher Scientific Inc.). The results were visualized with the Bio-Rad Gel Documentation system (Bio-Rad Laboratories, Hercules, Calif., USA), and the results were shown in FIG. 26.
# as §1, with “phospho p65 NF-κB, p-ERK, ERK, p-JNK, JNK, p-p38, p38 or calnexin;” for “phospho p65 NF-κB or calnexin;”, “Scientific Inc.). […]” for “Scientific Inc.). The results were visualized with the Bio-Rad Gel Documentation system (Bio-Rad Laboratories, Hercules, Calif., USA), and the results were shown in FIG. 26.”
# MAPKs (ERK, JNK, p38) [1] = assay: Western blotting of MAPKs activity in LPS-treated SW982 cells; format: cell-based, human
# Experimental: (§2) Western blotting was performed in the same manner as in Example 6.3. The first antibody used at this time is an antibody against p-ERK, ERK, p-JNK, JNK, p-p38, p38 and calnexin (Cell signaling, CA, USA), and the secondary antibody is anti-mouse or anti-rabbit HRP-binding secondary antibody.
# 1× Cell lysis buffer (Cell signaling, CA, USA) was mixed with protease and a phosphatase inhibitor and added to SW982 cells. After extracting the protein from the cells, the concentration was measured, and the same amount of protein was developed on an SDS-polyacrylamide gel, and transferred to an ECL nitrocellulose membrane (Amersham Pharmacia Biotech, Inc., Piscataway, N.J., USA) and blocked with nonfat dried milk for 1 hour. Thereafter, the reaction was performed with the first antibody (p65 NF-κB, phospho p65 NF-κB, p-ERK, ERK, p-JNK, JNK, p-p38, p38 or calnexin; Cell signaling, CA, USA), while shaking at 4° C. for 24 hours. Then, after shaking and washing 3 times for 10 minutes with PBST buffer, the secondary antibody was incubated with anti-mouse or anti-rabbit HRP-conjugated secondary antibody for 1 hour at room temperature, and reacted with the protein band on the membrane using Supersignal west pico ECL solution (Thermo Fisher Scientific Inc.). The results were visualized with the Bio-Rad Gel Documentation system (Bio-Rad Laboratories, Hercules, Calif., USA), and the results are shown in FIG. 35.
# MAPKs (ERK, JNK, p38) [2] = assay: Western blotting of MAPKs activity in LPS-treated Raw 264.7 cells; format: cell-based, mouse
# Experimental: as §2
# Western blotting was performed in the same manner as in Example 7.4.
# [3] = system: pro-inflammatory cytokines (TNF-α, IL-1β, IL-6, IL-17, iNOS) in SW982 cells; assay: RT-qPCR of LPS-induced pro-inflammatory cytokine expression in SW982 cells; conditions: 6 hours
# Text: Lipopolysaccharide (LPS) was purchased from Sigma-Aldrich (St. Louis, Mo., USA).
# [4] = LPS 1 ug/ml, 0.5, 1, 10, 100 uM, 30 minutes, naltrexone effect at 1 uM
# [5] = LPS 1 ug/ml, 0.5, 1, 10, 100 uM
structure (smiles),measurement,setting,value
"O=C1CC[C@@]2(O)[C@H]3Cc4ccc(O)c5c4[C@@]2(CCN3CC2CC2)[C@H]1O5 [Naltrexone, 17-(cyclopropylmethyl)-4,5α-epoxy-3,14-dihydroxymorphinan-6-one]",binding to MD2 (surface plasmon resonance),MD2 protein,binds to the MD2 protein
same,phosphorylation of p65 NF-κB increased by LPS,"p65 NF-κB; 200 ug/ml of naltrexone, Western blotting",inhibited
same,phosphorylation of p65 NF-κB increased by LPS,p65 NF-κB; [4],inhibited
same,phosphorylation of MAPK increased by LPS,"MAPKs (ERK, JNK, p38) [1]; 200 or 500 ug/ml of naltrexone, Western blotting",decreased
same,"phosphorylation of MAPKs (ERK1/2, JNK, p38) increased by LPS","MAPKs (ERK, JNK, p38) [1]; [4]",inhibited
same,"phosphorylation of MAPKs (ERK1/2, JNK, p38)","MAPKs (ERK, JNK, p38) [2]; LPS 1 ug/ml, 0.5, 1, 10, 100 uM, 30 minutes",no inhibitory effect
same,phosphorylation of MAPKs increased by LPS,"MAPKs (ERK, JNK, p38) [2]; naltrexone 100, 200, 500, or 1000 ug/ml, Western blotting",not inhibited
same,"cytokine inhibitory activity, naltrexone compared with 6β-naltrexol",[3]; [5],superior cytokine inhibitory activity than the metabolite 6β-naltrexol
same,"expression of cytokines (iNOS, IL-1β, IL-6, TNF-α) induced by LPS",[3]; [5],suppressed at all concentrations
same,"expression of pro-inflammatory cytokines (TNF-α, IL-1β, IL-6, IL-17, iNOS) increased by LPS","[3]; LPS 1 ug/ml, naltrexone 200 or 500 ug/ml",significantly inhibited
